Source: patent US9474814B2, “Differential evaporation potentiated disinfectant system” (XY, LLC, priority 2007, dated 2016)
Where two headings read alike, the source gives them in different places.

Experiments:
[1] = flash point; cited from earlier work
[2] = neat substance; BuAc (reference) = 1.00; cited from earlier work
[3] = n-octanol/water; cited from earlier work
[4] = test system: Staphylococcus aureus (ATCC 6538), Pseudomonas aeruginosa (ATCC 9027), Salmonella Choleraesuis (ATCC 13312); experiment: Coverslip assay: composition applied to dried bacteria on glass coverslips, evaporated to dryness, nutrient agar contact; type: cell-based
Protocol: These bacteria cultures can be diluted to obtain concentrations of about 10^7 through about 10^3 CFU/ml and 10 μl of each dilution can be spread onto a glass coverslip with a sterile loop and allowed to dry. Afterwards, the coverslips containing 10^5 to 10^2 CFU can be placed inside of petri dish. Different concentrations of the amount of substance can be applied to the cover slips with a nebulizer as described by Germicidal Spray Products as Disinfectants, Method 961.02, AOAC International (2004). As a non-limiting example, isopropyl alcohol (IPA) and diacetone alcohol (DAA) can be assessed as above described by obtaining aqueous mixtures of IPA at concentrations of 55% w/w, 20% w/w, and 5% w/w. […] A nutrient agar lightly pressed against the coverslips allows contact of microorganisms on the coverslips with the nutrient agar. The nutrient agar can be incubated for 48 hours at 37° C. in contact with the coverslips and then observed for microbial reproduction in the region where the coverslips contact the nutrient agar. Untreated coverslips can be used as a positive control. Particular examples of utilizing the method are set forth below.

[5] = Evaporation of fluid volume over time (FIG. 2); type: physicochemical
Description: (§1) Line C represents the change in fluid volume of a 20% (v/v) solution of diacetone alcohol in water caused by evaporation (a particular embodiment of the inventive differential evaporation antimicrobial composition), while line D represents the change in fluid phase concentration of the same 20% (v/v) diacetone alcohol in water occurring during the same fluid volume change. In this case, complete evaporation can occur in approximately 75 time units. Comparatively, the 20% (v/v) diacetone alcohol in water can be engaged with a population of microorganisms for a greater duration of time than the conventional antimicrobial composition without reapplication of an additional amount because evaporation occurs at a slower rate as shown by Table 3.
By comparison, Line C represents the change in fluid volume of a 20% (v/v) solution of diacetone alcohol in water, while line D represents the change in concentration of diacetone alcohol in water. As to this non-limiting example, if 10% diacetone alcohol (v/v) is the minimum concentration to provide an antimicrobial composition, then the entire 75 time units provide an antimicrobial composition because the concentration of diacetone alcohol increases over the 75 time units in accordance with embodiments of differential evaporation potentiated antimicrobial compositions.

[6] = Relative evaporation rates; type: physicochemical; settings: BuAc (reference) = 1.00
Description: as §1

[7] = cited from earlier work
[8] = test system: Staphylococcus aureus (ATCC 6538); experiment: Potentiation Assay (non-evaporative vs evaporative procedure); type: cell-based; settings: for Evaporated Log 10 Reduction: evaporated in centrifuge 60 minutes; for Non-evaporated Log 10 Reduction: set 60 minutes; for evaporative potentiation of antimicrobial efficacy: evaporative vs non-evaporative procedure, concentrations tested in water
Protocol: Now referring primarily to Table 5 and FIG. […] The non-evaporative and evaporative procedures included 50 μL of an overnight Staphylococcus aureus (ATCC 6538, ˜10^9 CFU/mL) culture added to each 2 mL sterile plastic vial with a conical bottom and dried without capping in a centrifuge for 30 minutes. One hundred microliters of the solution being tested was added to each vial (as triplicate vials) either let set for 60 minutes (non-evaporative) or evaporated in a centrifuge for 60 minutes (evaporative), with time to evaporate being determined by each DAA mixtures own evaporative characteristic. To the non-evaporated vials, 400 μL Mueller Hinton Broth (MHB) was added to the vial and 100 μL was plated onto Nutrient agar (NA). To the evaporated vials, 500 μL of MHB was added and 100 μL was plated onto NA. Plates were incubated overnight at ˜37° C. and counted (the “Potentiation Assay”).

[9] = 6% v/v active component, 94% water
[10] = 10% v/v active component, 90% water
[11] = azeotrope in water, Table 2, listed as Diacetone Alcohol
[12] = 3% v/v active component, 97% water
[13] = 15% v/v active component, 85% water
[14] = 70% v/v active component, 30% water
[15] = 20% v/v active component, 80% water

SMILES: CC(C)=O [Acetone, reference compound]
- FP [1]: −18 °C
- Relative Evaporation Rates [2]: 11.60
- Log P [3]: −0.23

SMILES: CC(=O)CC(C)(C)O [DAA, 4-hydroxy-4-methyl-2-pentanone]
- Evaporated from coverslip [4, 9]: X (denotes a plate where the number of colonies represented less than 50% of the number of colonies counted in the corresponding positive control plate, representing reduction of the number of microorganisms (<2 Log10 reduction).)
- Evaporated from coverslip [4, 10]: XX (denotes a plate where the number of colonies represented less than 10% of the number of colonies counted in the corresponding positive control plate, representing a significant reduction of the number of microorganisms (>3 Log10 reduction).)
- Evaporated from coverslip ([4]; 60% v/v active component, 40% water): XXX (denotes a plate in which zero colonies were present, representing complete reduction of the number of microorganisms (>5 Log10 reduction).)
- reduction of populations of microorganisms, comparison ([4]; concentrations at which water evaporated at a greater rate than DAA from the mixture): greater reduction of populations of microorganisms than 70% IPA (v/v)
- complete evaporation ([5]; 20% (v/v) in water): approximately 75 time units
- Relative Evaporation Rates (estimated) ([6]; 20% (v/v)): 0.31
- Relative Evaporation Rates (estimated) ([6]; 40% (v/v)): 0.27
- azeotrope % mol/mol ([7]; azeotrope in water, Table 2): 2.2% mol/mol
- azeotrope % vol/vol [7, 11]: 13.43% vol/vol
- azeotrope % w/w [7, 11]: 12.70% w/w
- azeotrope % w/w ([7]; azeotrope in water, Table 2, listed as diacetone alcohol): about 12.70 % w/w
- azeotrope point ([7]; diacetone alcohol and water): about 12.7 grams per 100 grams of the com
- Relative Evaporation Rates [2]: 0.14
- Log P [3]: about −0.14
- Evaporated Log 10 Reduction [8, 12]: X (denotes a plate where the number of colonies represented less than 50% of the number of colonies counted in the corresponding positive control plate, representing reduction of the number of microorganisms (<2 Log10 reduction).)
- Non-evaporated Log 10 Reduction [8, 12]: ---0--- (denotes a plate where the numbers of colonies represented more than 50% of the number of colonies counted in the corresponding positive control plate, representing no significant reduction in the population of viable microorganisms (0 to 1 Log10 reduction).)
- Evaporated Log 10 Reduction [8, 9]: X (denotes a plate where the number of colonies represented less than 50% of the number of colonies counted in the corresponding positive control plate, representing reduction of the number of microorganisms (<2 Log10 reduction).)
- Non-evaporated Log 10 Reduction [8, 9]: ---0--- (denotes a plate where the numbers of colonies represented more than 50% of the number of colonies counted in the corresponding positive control plate, representing no significant reduction in the population of viable microorganisms (0 to 1 Log10 reduction).)
- Evaporated Log 10 Reduction [8, 10]: XX (denotes a plate where the number of colonies represented less than 10% of the number of colonies counted in the corresponding positive control plate, representing a significant reduction of the number of microorganisms (>3 Log10 reduction).)
- Non-evaporated Log 10 Reduction [8, 10]: ---0--- (denotes a plate where the numbers of colonies represented more than 50% of the number of colonies counted in the corresponding positive control plate, representing no significant reduction in the population of viable microorganisms (0 to 1 Log10 reduction).)
- Evaporated Log 10 Reduction [8, 13]: XXX (denotes a plate in which zero colonies were present, representing complete reduction of the number of microorganisms (>5 Log10 reduction).)
- Non-evaporated Log 10 Reduction [8, 13]: XXx (denotes a plate where the number of colonies represented less than 1% of the number of colonies counted in the corresponding positive control plate, representing nearly complete reduction of the number of microorganisms (>4 Log10 reduction).)
- evaporative potentiation of antimicrobial efficacy [8]: can be potentiated by evaporation

SMILES: CC(C)O [Isopropanol, 2-propanol, reference compound]
- Evaporated from coverslip [4, 9]: ---o---
- Evaporated from coverslip ([4]; 25% v/v active component, 75% water): ---o---
- Evaporated from coverslip [4, 14]: X (denotes a plate where the number of colonies represented less than 50% of the number of colonies counted in the corresponding positive control plate, representing reduction of the number of microorganisms (<2 Log10 reduction).)
- reduction of the population of viable microorganisms ([4]; concentrations of 6% and 25% in water): did not reduce the population of viable microorganisms
- complete evaporation ([5]; 70% (v/v) in water): about 15 time units
- FP [1]: 21 °C
- Azeotrope with Water % v/v ([7]; Table 1): 83% v/v
- Azeotrope with Water % w/w ([7]; Table 1): 87% w/w
- Evaporated Log 10 Reduction [8, 10]: ---0--- (denotes a plate where the numbers of colonies represented more than 50% of the number of colonies counted in the corresponding positive control plate, representing no significant reduction in the population of viable microorganisms (0 to 1 Log10 reduction).)
- Non-evaporated Log 10 Reduction [8, 10]: ---0--- (denotes a plate where the numbers of colonies represented more than 50% of the number of colonies counted in the corresponding positive control plate, representing no significant reduction in the population of viable microorganisms (0 to 1 Log10 reduction).)
- Evaporated Log 10 Reduction [8, 15]: ---0--- (denotes a plate where the numbers of colonies represented more than 50% of the number of colonies counted in the corresponding positive control plate, representing no significant reduction in the population of viable microorganisms (0 to 1 Log10 reduction).)
- Non-evaporated Log 10 Reduction [8, 15]: XXX (denotes a plate in which zero colonies were present, representing complete reduction of the number of microorganisms (>5 Log10 reduction).)
- Evaporated Log 10 Reduction [8, 14]: XXX (denotes a plate in which zero colonies were present, representing complete reduction of the number of microorganisms (>5 Log10 reduction).)
- Non-evaporated Log 10 Reduction [8, 14]: XXX (denotes a plate in which zero colonies were present, representing complete reduction of the number of microorganisms (>5 Log10 reduction).)
- evaporative potentiation of antimicrobial efficacy [8]: cannot be potentiated
